For data set [1], the system named is MX-1 human breast carcinoma xenograft. The data set is described as follows: tumor growth delay, MX-1 xenograft, two-cycle dosing (Example 11). Conditions: 2-cycle.
Procedure: The following procedure was used to investigate the tumor growth delay effects of the conjugate, particularly for the treatment of MX-1 human breast carcinoma xenograft in athymic mice using a two-cycle dosing regimen. Female nude Harlan mice are implanted subcutaneously with 1 mm^3 MX 1 solid tumor fragments in the flank. During the pre-dose phase of implantation and growth, tumors are initially monitored twice weekly, and then daily as the neoplasms approach the desired size of 80-120 mg. When the majority of tumors reached the targeted weight range (80-120 mg), mice are pair-matched into 5 treatment groups of 10 mice each. For purposes of this illustrationon the effect of 2-cycles of treatment, data from 3 groups are shown: no treatment, 3 mg/kg/day (days 1-5, 21-25) intravenous Doxorubicin and 24 mg/kg/day (days 1-5, 21-25) intravenous bioconjugate. Test article administration began on this day, referred to as Day 1. The tumor growth delay endpoint is reached when the tumor on the mouse reaches 1.5 gm weight estimated by the formula: Tumor weight (mg)=w^2×l/2×1 mg/mm^3, where w=width (mm) and l=length (mm) of the tumor. The median time to endpoint is calculated for each treatment group.
A short description of data set [2]: systemic toxicity / MTD of free doxorubicin versus conjugate on a molar basis (separate study). It counts as in vivo, mice.
Data set [3] has as its system MX-1 human breast carcinoma xenograft. Kind of data set: tumor growth delay, MX-1 xenograft, single-cycle dosing (Example 3). To be noted: 3 mg/kg/day x 5 days intravenous. As for the experimental part:
Test articles were administered on the day of pair matching, Day 1.
The upper limit of acceptability is 20% weight loss.

In the case of `COc1cccc2c1C(=O)c1c(O)c3c(c(O)c1C2=O)C[C@@](O)(C(=O)CO)C[C@@H]3O[C@H]1C[C@H](N)[C@H](O)[C@H](C)O1` [Doxorubicin, doxorubicin, reference compound], the “time to endpoint longer than control mice” value in data set [1] (3 mg/kg/day (days 1-5, 21-25) intravenous) is given as “at least 44 days”. For the same compound, the “treatment or nontreatment related deaths” value is on record as “no treatment or nontreatment related deaths” in data set [1] (3 mg/kg/day intravenous) and “no other treatment or nontreatment related deaths” in data set [3]. Besides, the “long-term, tumor-free survivors” value in data set [1] (3 mg/kg/day intravenous, at 71 days) is reported as “significant percentage”; in data set [3] (10 mice) it was “no long-term, tumor-free survivors”. Besides, the “lethality at the same high molar dose” value in data set [2] (free doxorubicin at the same high molar dose as the conjugate) is recorded as “mice were killed by the free doxorubicin”. Moreover, in data set [2] (separate study), the “MTD lower than for the conjugate on a molar basis” value was “at least 2.3 times”. Further, in data set [3], the “median delay in tumor growth (median time to endpoint, tumor 1.5 gm)” value was found to be 39.5 days. Moreover, the “partial or complete tumor regressions” value in data set [3] (10 mice) is on record as “no partial or complete tumor regressions”.

Values taken from US7232805B2, “Cobalamin conjugates for anti-tumor therapy” (Inflabloc Pharmaceuticals, Inc., priority 2003, dated 2007).
